The values below come from PMC5408667, “A structural and functional analogue of a Bowman–Birk-type protease inhibitor from Odorrana schmackeri” (Bioscience Reports, 2017).

Entries after “also recorded” stand apart in the source; their conditions may differ. Bridge positions count the residues as written; N and C are the ends. Peptide text beside a SMILES is read from it.

Data set [1] deals with Chymotrypsin (Bos taurus, UniProt P00766). Description: Chymotrypsin inhibition assay. It is filed as biochemical. Here is the method:
Chymotrypsin (10 μl from 0.1 μM stock solution in 1 mM HCl) was added to the wells of a microtitre plate containing substrate (Succinyl–Ala–Ala–Pro–Phe–NHMec, obtained from Bachem, U.K.) (50 μM) and synthetic peptide replicates (0.1–100 μM) in 10 mM phosphate buffer, pH 7.4, containing 2.7 mM KCl and 137 mM NaCl (final volume 210 μl).
(§1) Each determination was carried out in triplicate. The rate of hydrolysis of substrate was monitored continuously, at 37°C, by measuring the rate of increase in fluorescence due to production of 7-amino-4-methylcoumarin (NH2Mec) at 460 nm (excitation 360 nm) in a CytoFluor® multi-well plate reader Series 4000 spectrofluorimeter.
For modest binding inhibition, we first calculated the IC50 from a plot of % inhibition against inhibitor concentration [I]. The data points were fitted to the resulting curve, by non-linear regression analysis, using GraphPad Prism. The IC50 values were then converted into Ki values using the eqn (3), to account for the presence of competing substrate. (3) Ki = IC50/{1 + ([S]/KM)}
This kinetic treatment was applied to the inhibition of tryptase by OSTI and chymotrypsin by [Phe^9]-OSTI. […] The Michaelis constant KM for tryptase against Boc-Phe-Ser-Arg-NHMec was determined to be 227.2 μM, while KM for chymotrypsin against Succinyl–Ala–Ala–Pro–Phe–NHMec was determined to be 38.4 μM. […]

Data set [2] deals with T1, Tryptase (Homo sapiens, UniProt Q15661).
T1 construct: purchased Calbiochem, U.K
T1 sequence (Q15661 31-275): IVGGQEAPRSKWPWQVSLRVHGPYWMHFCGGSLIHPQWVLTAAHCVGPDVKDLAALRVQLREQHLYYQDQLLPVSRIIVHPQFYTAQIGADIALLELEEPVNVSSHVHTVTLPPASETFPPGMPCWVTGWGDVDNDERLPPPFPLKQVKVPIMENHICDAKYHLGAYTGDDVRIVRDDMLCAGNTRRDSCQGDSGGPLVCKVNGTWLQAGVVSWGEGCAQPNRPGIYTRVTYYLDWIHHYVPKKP
Description: Tryptase inhibition assay. It is filed as biochemical.
Description: Tryptase (2.5 μl from 1 mg/ml stock solution, Calbiochem, U.K.), was added to the wells of a microtitre plate containing substrate (Boc-Phe-Ser-Arg-NHMec, obtained from Bachem, U.K.) (50 μM) and synthetic peptide replicates (0.5, 1, 2 and 4 mM) in tryptase assay buffer, pH 7.6, containing 0.05 M Tris, 0.15 M NaCl and 0.2% (w/v) PEG 6000 (final volume 210 μl).
For modest binding inhibition, we first calculated the IC50 from a plot of % inhibition against inhibitor concentration [I]. The data points were fitted to the resulting curve, by non-linear regression analysis, using GraphPad Prism. The IC50 values were then converted into Ki values using the eqn (3), to account for the presence of competing substrate [15]. (3) Ki = IC50/{1 + ([S]/KM)}
In inhibition studies with both these proteases, their respective substrates were used at a fixed concentration [S] of 50 μM. […] The determination of these KM values was carried out using identical buffer and temperature conditions (37°C) as those employed in the inhibition studies with the two synthetic amphibian peptides.

In data set [3] the target is T2, Trypsin (Bos taurus, UniProt P00760).
T2 construct: gene PRSS1
T2 sequence (P00760 24-246): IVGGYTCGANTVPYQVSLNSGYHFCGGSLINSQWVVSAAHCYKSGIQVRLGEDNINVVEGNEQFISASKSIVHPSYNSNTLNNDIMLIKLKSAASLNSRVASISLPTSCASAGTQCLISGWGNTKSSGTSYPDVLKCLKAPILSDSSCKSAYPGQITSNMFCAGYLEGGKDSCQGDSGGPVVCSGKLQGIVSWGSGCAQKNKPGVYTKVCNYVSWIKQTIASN
The data set can be described thus: Trypsin inhibition assay (synthetic peptides, Morison plot). Type of data set: biochemical. Particulars: substrate Phe-Pro-Arg-NHMec 50 μM, 37°C. On the procedure: Trypsin (10 μl from 0.1 μM stock solution in 1 mM HCl), was added to the wells of a microtitre plate containing substrate (Phe-Pro-Arg-NHMec) (50 μM) and synthetic peptide replicates (0.1–100 μM) in 10 mM phosphate buffer, pH 7.4, containing 2.7 mM KCl and 137 mM NaCl (final volume 210 μl).
as §1
For potent, slow, tight-binding inhibition, the Morison equation was used to determine the inhibition constant Ki(app) by fitting the kinetic data to the equation below: (1) Vi/V0 = 1 − {[E]0 + [I] + Ki(app) − ([E]0 + [I] + Ki(app))^2−4 × [E]0 × [I]/2 × [E]0} […]
This kinetic treatment was used for the inhibition of trypsin by OSTI. Since the inhibition studies were performed in the presence of competing substrate, the true Ki value was calculated from Ki(app) using eqn (2). For trypsin, a fixed substrate concentration [S] of 50 μM was used, for these inhibition studies and in a separate experiment (performed using identical buffer and temperature conditions),a value of 73.29 μM was determined for the Michaelis constant KM, for substrate hydrolysis in the absence of OSTI. […]

Data set [4] can be described thus: Determination of peptide secondary structures using CD analysis. Type of data set: physicochemical. On the procedure: CD measurements were performed with a JASCO J-815 CD spectrometer (Jasco, Essex, U.K.) at room temperature (20–25°C). Each peptide was dissolved in (a) water and (b) 50% (v/v) trifluoroethanol (TFE)-water to reach a concentration of 50 μM before being transferred and measured in a 0.1 cm high precision quartz cell (Hellma Analytics, Essex, U.K.). The wavelength used in CD spectrometer was from 190 to 240 nm with a scanning speed of 200 nm/min, bandwidth and data pitch are 1 and 0.5 nm respectively. CD data are expressed as the mean molar ellipticity [θ] in deg.cm^2.dmol^−1 in corresponding wavelength (nm), which is calculated using the measured ellipticity (θ, in medg) with the equation [θ] = θ/(10 × c × l), ‘c’ refers to the molar concentration of the sample (mol/l) and the term ‘l’ is the cuvette path length (cm). DichroWeb webserver (http://dichroweb.cryst.bbk.ac.uk/html/home.shtml) was used to estimate the α-helix and β-sheet content.
Figure 8 Circular dichroism spectra of OSTI and [Phe^9]-OSTI The CD spectra recorded for OSTI and [Phe^9]-OSTI (100 μM) in (A) 10 mM ammonium acetate water solution and (B) 50% 2,2,2-TFE/10 mM ammonium acetate water solution.

Data set [5] has as its system chymase. The note with it: Lineweaver–Burk double-reciprocal plot; ref [24]; cited from earlier work. The source says: Tryptase and chymase are atypical serine proteases that are synthesized, stored and released by mast cells. Due to their close involvement in the pathogenesis of inflammation and some other diseases, there have been reports of BBIs possibly having utility in the treatment of such conditions.

The mark [6] stands for this setting: 50% TFE-water, CD 190–240 nm, room temperature (20–25°C), DichroWeb.
Setting [7] is: aqueous solution, CD 190–240 nm, room temperature (20–25°C), DichroWeb.

As for “Succinyl–Ala–Ala–Pro–Phe–NHMec [fluorogenic chymotrypsin substrate, reference compound]”, the Michaelis-Menten constant (Km) (usually the concentration of substrate that gives half-maximal velocity) in data set [1] (substrate of chymotrypsin, identical buffer and temperature conditions (37°C), read-out: Michaelis constant KM, chymotrypsin) amounted to 38.4 µM.
For “Boc-Phe-Ser-Arg-NHMec [fluorogenic tryptase substrate, reference compound]”, the Km in data set [2] (substrate of tryptase, identical buffer and temperature conditions (37°C), read-out: Michaelis constant KM, tryptase) was determined as 227 µM.
On to `CC[C@H](C)[C@@H]1NC(=O)[C@H](CO)NC(=O)[C@H](CCCCN)NC(=O)[C@H]([C@@H](C)O)NC(=O)[C@H](Cc2c[nH]c3ccccc23)NC(=O)[C@@H](NC(=O)CNC(=O)[C@H](CCCCN)NC(=O)[C@H](CC(C)C)NC(=O)[C@H](C)NC(=O)[C@H](C)N)CSSC[C@@H](C(=O)N[C@@H](Cc2ccccc2)C(N)=O)NC(=O)[C@@H]2CCCN2C(=O)[C@H](CCCCN)NC(=O)[C@@H]2CCCN2C(=O)[C@@H]2CCCN2C1=O` [OSTI, AALKGCWTKSIPPKPCF-amide] (H-AALKGCWTKSIPPKPCF-NH2; disulfide 6-16; N-terminus assumed), for which the “tryptase inhibition (in words)” value in data set [2] (progress curves, OSTI 0–17.4 μM) is recorded as “moderate inhibitor”. Moreover, the “inhibition kinetics / mechanism from progress curves” value in data set [3] is reported as “reversible, slow-binding kinetics; also recorded: two-step complexing mechanism”. In data set [4] (50% TFE-water, CD), the “β-sheet secondary structure (in words)” value is on record as “low percentage of β-sheet secondary structure”. In data set [4] (setting [6]), the random coil content came to 47%, the α-helix content was 8% and the β-sheet content stood at 45%. In addition, the “canonical β-turn motif” value in data set [4] (aqueous solution, CD) was “did not display canonical β-turn motif”. In addition, in data set [4] (setting [7]), the random coil content is 42% and the β-sheet content is 51%.
As for `CC[C@H](C)[C@@H]1NC(=O)[C@H](CO)NC(=O)[C@H](Cc2ccccc2)NC(=O)[C@H]([C@@H](C)O)NC(=O)[C@H](Cc2c[nH]c3ccccc23)NC(=O)[C@@H](NC(=O)CNC(=O)[C@H](CCCCN)NC(=O)[C@H](CC(C)C)NC(=O)[C@H](C)NC(=O)[C@H](C)N)CSSC[C@@H](C(=O)N[C@@H](Cc2ccccc2)C(N)=O)NC(=O)[C@@H]2CCCN2C(=O)[C@H](CCCCN)NC(=O)[C@@H]2CCCN2C(=O)[C@@H]2CCCN2C1=O` [[Phe^9]-OSTI, AALKGCWTFSIPPKPCF-amide] (H-AALKGCWTFSIPPKPCF-NH2; disulfide 6-16), the Ki (usually the equilibrium dissociation constant of an inhibitor or competing ligand from its target) in data set [1] (substrate Succinyl–Ala–Ala–Pro–Phe–NHMec 50 μM, 10 mM phosphate buffer pH 7.4, 2.7 mM KCl, 137 mM NaCl, 37°C, from IC50 with KM 38.4 μM, mean ± S.E.M. of three independent experiments, each performed in duplicate) was 1000 ± 100 nM.

B1: soybean BBI: soybean Bowman–Birk protease inhibitor, two-headed protease inhibitor (protein, UniProt P01055 40-110, looked up)
Bowman-Birk type proteinase …: DDESSKPCCDQCACTKSNPPQCRCSDMRLNSCHSACKSCICALSYPAQCFCVDITDFCYEPCKPSEDDKEN
For the molecule B1, the “mechanism of chymase inhibition” value in data set [5] was “non-competitive mechanism”.
